Data set [1] has as its system glial fibrillary acidic protein (GFAP). As to the kind of experiment: GFAP reactivity of neural stem cells encapsulated in BAOs with or without EGF. The conditions noted are these: 20 ng/ml EGF. It is filed as cell-based. Here is the method: Neurospheres were prepared using the methods of Weiss et al., PCT/CA 92/00283. Passage 68 neurospheres were collected and divided. Half of the neurospheres were triturated into a single cell suspension and half remained as clusters. A single cell count was performed on a single cell suspension and it was assumed that the clustered cells were of the same concentration. Single cells and clusters were suspended separately in equal amounts of Vitrogen™ and either neurosphere medium with 20 ng/ml EGF as controls, or PC-1 medium.
Cells were loaded at a density of 25,000 cells/μl into single-skinned hollow fiber PAN/PVC BAOs, prepared substantially as described in Example 2, and then hub sealed. The BAOs were held in either neurosphere+EGF medium or in PC-1 medium (with no EGF).
The BAOs were sacrificed after 3 days and 7 days and were stained for glial fibrillary acidic protein (GFAP) by immunocytochemistry. GFAP is an intermediate filament protein specifically expressed in astrocytes. […]

Regarding poly(hydroxyethyl methacrylate) [PHEMA], the “toxicity of scaffold to PC12 cells” value with PC12 cells is “nontoxic”.
For “EGF: epidermal growth factor, 20 ng/ml in neurosphere medium”, the “GFAP Reactivity” value in data set [1] (cell clusters, 3 days) is reported as “Negative”; in data set [1] (cell clusters, 7 days), “Negative”; in data set [1] (single cell, 3 days), “Negative”; in data set [1] (single cell, 7 days), “Negative”.

The record behind these values is patent US6392118B1, “Mx-1 conditionally immortalized cells” (Neurotech S.A., priority 1994, dated 2002).
